Measured values: patent US20030135033A1, “Compounds and methods for the identification and/ or validation of a target” (priority 2002, published 2003)

Key:
PTEN mRNA [1] = experiment: Immunoblot of PTEN and phosphorylated Akt after GeneBloc transfection of HeLa cells; assay type: cell-based, human; settings: 30 nM, 48 h
Description: More particularly, HeLa cells (380.000 cells/plate) and PC-3 cells (450.000 cells/plate) were transfected in parallel on 10 cm plates. Each cell line was treated for 48 h in duplicate samples with 30 nM of PTEN GeneBloc 53 or GBC. The cell extracts were analyzed by immunoblotting for the relative amounts of p110, PTEN and phosphorylated Akt (P*-Akt) as indicated on the right. The band which migrates just above the PTEN signal was caused by unspecific reaction of the secondary antibody.
More particularly, a schematic pathway with PTEN inhibiting PI-3K activity is shown which would normally phosphorylate Akt thus leading to proliferation, survival and migration of HeLa cells as a model system for PTEN +/+ cells. FIG. 9 B presents the Western immunoblot analysis of an experiment studying the influence of PTEN specific antisense oligonucleotide or a control antisense nucleotide designated as mismatch GeneBloc™. PTEN is only present in the control sample, but is absent when PTEN-specific antisense oligonucleotides are used. The successful knockdown of PTEN causes phosphorylation of Akt, indicative of induction of the signalling pathway. […] Growth on matrigel is used as a surrogate in vitro assay for metastatic or invasive cell growth. The cells treated with PTEN third generation antisense oligonucleotide (“PTEN GeneBloc™”) shown in FIG. 9C have a significant growth advantage over the control-treated cells.
Transfections were carried out in 96 well or 10-cm plates (at 30% to 50% confluency) by using various cationic lipids such as Oligofectamine, Lipofectamine (Life Technologies), NC388 (Ribozyme Pharmaceuticals, Inc., Boulder, CO), or FuGene 6 (Roche) according to the manufacturer's instructions. […]
Cells were washed twice with cold phosphate-buffered saline and lysed at 4° C. in lysis buffer containing 20 mM Tris (pH 7.5), 137 mM NaCl, 15% (vol/vol) glycerol, 1% (vol/vol) Nonidet P-40 (NP-40), 2 mM phenylmethylsulfonyl fluoride, […], 20 mM leupeptin, 2 mM benzamidine, 1 mM sodium vanadate, 25 mM […]-glycerol phosphate, 50 mM NaF and 10 mM NaPPi. Lysates were cleared by centrifugation at 14,000× g for 5 minutes and aliquots of the lysates were analyzed for protein expression by Western-blotting: Samples were separated by SDS-PAGE and transferred to nitrocellulose-filters (Schleicher & Schuell). […] Bound antibody was detected using anti-mouse- or anti-rabbit-conjugated horse radish peroxidase (Transduction Laboratories, BD) in TBST, washed, and developed using the SuperSignal West Dura (Pierce) or ECL (Amersham) chemoluminescence substrates.
The effect of GeneBloc induced transient knock down of PTEN expression was to be compared to the loss of PTEN function in human tumor cells. […] After 2 days the cell extracts were analyzed by Western-blotting. […]

PTEN mRNA [2] = experiment: Relative PTEN RNA level by Taqman analysis; assay type: cell-based, rat; settings: 3Y1 cells, parallel samples of BrdU experiment
Description: The RNA of cells transfected in 96-wells was isolated and purified using the Invisorb RNA HTS 96 kit (InVitek GmbH, Berlin). Inhibition of PTEN mRNA expression was detected by real time RT-PCR (Taqman) analysis using PTEN 5′ primer […] (SEQ ID No. 47), PTEN 3′ primer […] (SEQ ID No. 48) and the Taqman probe Fam-[…]-Tamra (SEQ ID No. 34). The reaction was carried out in 50 μl and assayed on the ABI PRISM 7700 Sequence detector (Applied Biosystems) according to the manufacturer's instructions under the following conditions: 48° C. for 30 min, 95° C. for 10 min, followed by 40 cycles of 15 sec at 95° C. and 1 min at 60° C.
(§1) 3Y1 cells were used, because these untransformed rat fibroblasts are very sensitive to transfection conditons and are prone to arrest or even undergo apoptosis. Subconfluent 3Y1 cells in 96 wells were treated with PTEN GeneBloc 48, GeneBloc 53 or GBC as a control. On day 2 the cells were synchronized in low serum. During days 3 and 4 the cells were released into the cell cycle by serum stimulation at various time points. BrdU was added for the last 2 h of incubation. Untreated cells and cells that were treated with Aphidicolin for 24 h were used as controls. RNA knock down was analyzed in parallel samples. The rate of synthesis was determined via the amount of incorporated BrdU.

3Y1 cells = experiment: Rate of DNA synthesis by incorporation of bromodeoxyuridine; assay type: cell-based, rat; settings: synchronized in low serum, released by serum stimulation
Description: 3Y1 cells plated in 96-wells at 1600 cells per well were transfected in triplicate samples with GeneBloc molecules. After ca. 30 h the cells were starved in DMEM containing 10 mM HEPES (pH 7.2) under continuous GeneBloc treatment. The cells were released into the cell cycle at various time points by addition of 10% serum. Control cells were incubated with 5 μg/ml aphidicolin for 18 h. After pulse-labeling with 10 μM 5-bromo-2′-deoxyururidine (BrdU) for the last 2 h the cells were fixed and permeabilized. The relative amount of BrdU incorporated into each sample was determined by using the Cell Proliferation ELISA, BrdU (colorimetric) (Roche) according to the manufacturer's instructions. Incorporated BrdU was detected by measuring the absorbance at 405 nm and 490 nM using the Spectra Max 190 (Molecular Devices).
as §1

Substance: ucuccuuTTGTTTCTGcuaacga (UCUCCUUTTGTTTCTGCUAACGA; chemistry not fully specified) [PTEN 53, third generation antisense oligonucleotide (GeneBloc) against PTEN]
- PTEN (immunoblot) (PTEN mRNA [1]): degradation of PTEN mRNA
- phosphorylated Akt (P*-Akt) (immunoblot) (PTEN mRNA [1]): generation of phosphorylated Akt
- PTEN (immunoblot) (PTEN mRNA [1]; listed as PTEN GeneBloc 53): strong reduction in PTEN protein
- phosphorylated Akt (P*-Akt) (immunoblot) (PTEN mRNA [1]; listed as PTEN GeneBloc 53): substantial increase in Akt phosphorylation
- PTEN mRNA level (PTEN/actin RNA) (PTEN mRNA [2]): remained downregulated
- rate of DNA synthesis (incorporated BrdU) (3Y1 cells): strong increase in DNA synthesis after 18 h
